# Columns and labels:
# Experiment in all cases: NCI60 antitumor screening
# Format in all cases: cell-based, human
# SK-MEL-2 = conditions: Homo sapiens; 10 μM single dose; SK-MEL-2 (melanoma); read-out: growth inhibition percent (GI%)
# UACC-257 = conditions: Homo sapiens; 10 μM single dose; UACC-257 (melanoma); read-out: growth inhibition percent (GI%)
# HOP-62 = conditions: for inhibition at 10 µM: Homo sapiens, 10 μM single dose, HOP-62 (non-small cell lung cancer), read-out: growth inhibition percent (GI%)
# UO-31 = conditions: Homo sapiens; 10 μM single dose; UO-31 (renal cancer); read-out: growth inhibition percent (GI%)
# SNB-75 = conditions: for inhibition at 10 µM: Homo sapiens, 10 μM single dose, SNB-75 (CNS cancer), read-out: growth inhibition percent (GI%)
# ACHN = conditions: Homo sapiens; 10 μM single dose; ACHN (renal cancer); read-out: growth inhibition percent (GI%)
# OVCAR-4 = conditions: for inhibition at 10 µM: Homo sapiens, 10 μM single dose, OVCAR-4 (ovarian cancer), read-out: growth inhibition percent (GI%)
# PC-3 = conditions: Homo sapiens; 10 μM single dose; PC-3 (prostate cancer); read-out: growth inhibition percent (GI%)
# DU-145 = conditions: Homo sapiens, DU-145; read-out: growth inhibition percent (GI%)
# NCI-H23 = conditions: Homo sapiens; 10 μM single dose; NCI-H23 (non-small cell lung cancer); read-out: growth inhibition percent (GI%)
# SK-MEL-28 = conditions: Homo sapiens; 10 μM single dose; SK-MEL-28 (melanoma); read-out: growth inhibition percent (GI%)
# K-562 = conditions: for inhibition at 10 µM: Homo sapiens, 10 μM single dose, (leukaemia), read-out: growth inhibition percent (GI%)
# CCRF-CEM = conditions: Homo sapiens; 10 μM single dose; CCRF-CEM (leukaemia); read-out: growth inhibition percent (GI%)
# NCI-H322M = conditions: Homo sapiens; 10 μM single dose; NCI-H322M (non-small cell lung cancer); read-out: growth inhibition percent (GI%)
# MOLT-4 = conditions: Homo sapiens; 10 μM single dose; MOLT-4 (leukaemia); read-out: growth inhibition percent (GI%)
# NCI-H460 = conditions: Homo sapiens; 10 μM single dose; NCI-H460 (non-small cell lung cancer); read-out: growth inhibition percent (GI%)
# RPMI-8226 = conditions: Homo sapiens; 10 μM single dose; RPMI-8226 (leukaemia); read-out: growth inhibition percent (GI%)
# OVCAR-8 = conditions: Homo sapiens; 10 μM single dose; OVCAR-8 (ovarian cancer); read-out: growth inhibition percent (GI%)
# MCF7 = conditions: Homo sapiens; 10 μM single dose; MCF7 (breast cancer); read-out: growth inhibition percent (GI%)
# HS 578T = conditions: for inhibition at 10 µM: Homo sapiens, 10 μM single dose, HS 578T (breast cancer), read-out: growth inhibition percent (GI%)
# MALME-3M = conditions: Homo sapiens; 10 μM single dose; MALME-3M (melanoma); read-out: growth inhibition percent (GI%)
# COLO 205 = conditions: Homo sapiens; 10 μM single dose; COLO 205 (colon cancer); read-out: growth inhibition percent (GI%)
# SNB-19 = conditions: Homo sapiens; 10 μM single dose; SNB-19 (CNS cancer); read-out: growth inhibition percent (GI%)
# SK-MEL-5 = conditions: Homo sapiens; 10 μM single dose; SK-MEL-5 (melanoma); read-out: growth inhibition percent (GI%)
# HOP-92 = conditions: Homo sapiens; 10 μM single dose; HOP-92 (non-small cell lung cancer); read-out: growth inhibition percent (GI%)
# NCI/ADR-RES = conditions: Homo sapiens; 10 μM single dose; NCI/ADR-RES (ovarian cancer); read-out: growth inhibition percent (GI%)
# SF-268 = conditions: Homo sapiens; 10 μM single dose; SF-268 (CNS cancer); read-out: growth inhibition percent (GI%)
# 786–0 = conditions: for inhibition at 10 µM: Homo sapiens, 10 μM single dose, 786–0 (renal cancer), read-out: growth inhibition percent (GI%)
# HCC-2998 = conditions: Homo sapiens; 10 μM single dose; HCC-2998 (colon cancer); read-out: growth inhibition percent (GI%)
# SK-OV-3 = conditions: Homo sapiens; 10 μM single dose; SK-OV-3 (ovarian cancer); read-out: growth inhibition percent (GI%)
# SF-539 = conditions: for inhibition at 10 µM: Homo sapiens, 10 μM single dose, SF-539 (CNS cancer), read-out: growth inhibition percent (GI%)
# MDA-MB-468 = conditions: Homo sapiens; 10 μM single dose; MDA-MB-468 (breast cancer); read-out: growth inhibition percent (GI%)
# NCI-H522 = conditions: Homo sapiens; 10 μM single dose; NCI-H522 (non-small cell lung cancer); read-out: growth inhibition percent (GI%)
# HCT-116 = conditions: Homo sapiens; 10 μM single dose; HCT-116 (colon cancer); read-out: growth inhibition percent (GI%)
# SN12C = conditions: Homo sapiens; 10 μM single dose; SN12C (renal cancer); read-out: growth inhibition percent (GI%)
structure (smiles),measurement,setting,value
"CN1CCN(c2nc(SCc3ccc([N+](=O)[O-])cc3)nc(-c3ccc(F)cc3)c2C#N)CC1 [4k, 4-(4-Fluorophenyl)-6-(4-methylpiperazin-1-yl)-2-((4-nitrobenzyl)thio)pyrimidine-5-carbonitrile]",inhibition at 10 µM,SK-MEL-2,< 10%
same,inhibition at 10 µM,UACC-257,< 10%
same,inhibition at 10 µM,HOP-62,26.3%
same,inhibition at 10 µM,UO-31,40%
same,inhibition at 10 µM,SNB-75,25.7%
same,inhibition at 10 µM,ACHN,31.5%
same,inhibition at 10 µM,OVCAR-4,< 10%
same,inhibition at 10 µM,PC-3,25.9%
same,inhibition at 10 µM,DU-145,< 10%
same,inhibition at 10 µM,NCI-H23,19.7%
same,inhibition at 10 µM,SK-MEL-28,14.4%
same,inhibition at 10 µM,K-562,23.3%
same,inhibition at 10 µM,CCRF-CEM,17.5%
same,inhibition at 10 µM,NCI-H322M,26.3%
same,inhibition at 10 µM,MOLT-4,17.6%
same,inhibition at 10 µM,NCI-H460,< 10%
same,inhibition at 10 µM,RPMI-8226,17.8%
same,inhibition at 10 µM,OVCAR-8,11.7%
same,inhibition at 10 µM,MCF7,17.6%
same,inhibition at 10 µM,HS 578T,42.6%
same,inhibition at 10 µM,MALME-3M,27.2%
same,inhibition at 10 µM,COLO 205,< 10%
same,inhibition at 10 µM,SNB-19,29.6%
same,inhibition at 10 µM,SK-MEL-5,16.4%
same,inhibition at 10 µM,HOP-92,47%
same,inhibition at 10 µM,NCI/ADR-RES,25.1%
same,inhibition at 10 µM,SF-268,< 10%
same,inhibition at 10 µM,786–0,26.4%
same,inhibition at 10 µM,HCC-2998,< 10%
same,inhibition at 10 µM,SK-OV-3,20.9%
same,inhibition at 10 µM,SF-539,41%
same,inhibition at 10 µM,MDA-MB-468,12.4%
same,inhibition at 10 µM,NCI-H522,21.3%
same,inhibition at 10 µM,HCT-116,18.4%
same,inhibition at 10 µM,SN12C,15.8%
"N#Cc1c(-c2ccc(F)cc2)nc(SCc2ccc([N+](=O)[O-])cc2)nc1N1CCNCC1 [4g, 4-(4-Fluorophenyl)-2-((4-nitrobenzyl)thio)-6-(piperazin-1-yl) pyrimidine-5-carbonitrile]",inhibition at 10 µM,SK-MEL-2,< 10%
same,inhibition at 10 µM,UACC-257,< 10%
same,inhibition at 10 µM,HOP-62,< 10%
same,inhibition at 10 µM,UO-31,11.9%
same,inhibition at 10 µM,SNB-75,15.9%
same,inhibition at 10 µM,ACHN,< 10%
same,inhibition at 10 µM,OVCAR-4,< 10%
same,inhibition at 10 µM,PC-3,< 10%
same,inhibition at 10 µM,DU-145,< 10%
same,inhibition at 10 µM,NCI-H23,< 10%
same,inhibition at 10 µM,SK-MEL-28,< 10%
same,inhibition at 10 µM,K-562,< 10%
same,inhibition at 10 µM,CCRF-CEM,< 10%
same,inhibition at 10 µM,NCI-H322M,< 10%
same,inhibition at 10 µM,MOLT-4,< 10%
same,inhibition at 10 µM,NCI-H460,< 10%
same,inhibition at 10 µM,RPMI-8226,< 10%
same,inhibition at 10 µM,OVCAR-8,< 10%
same,inhibition at 10 µM,MCF7,< 10%
same,inhibition at 10 µM,HS 578T,< 10%
same,inhibition at 10 µM,MALME-3M,< 10%
same,inhibition at 10 µM,COLO 205,< 10%
same,inhibition at 10 µM,SNB-19,< 10%
same,inhibition at 10 µM,SK-MEL-5,< 10%
same,inhibition at 10 µM,HOP-92,< 10%
same,inhibition at 10 µM,NCI/ADR-RES,< 10%
same,inhibition at 10 µM,SF-268,< 10%
same,inhibition at 10 µM,786–0,< 10%
same,inhibition at 10 µM,HCC-2998,< 10%
same,inhibition at 10 µM,SK-OV-3,< 10%
same,inhibition at 10 µM,SF-539,< 10%
same,inhibition at 10 µM,MDA-MB-468,< 10%
same,inhibition at 10 µM,NCI-H522,< 10%
same,inhibition at 10 µM,HCT-116,< 10%
same,inhibition at 10 µM,SN12C,< 10%
"Cc1ccc(CSc2nc(-c3ccc(F)cc3)c(C#N)c(N3CCN(c4ccccc4)CC3)n2)cc1 [4p, 4-(4-Fluorophenyl)-2-((4-methylbenzyl)thio)-6-(4-phenylpiperazin-1-yl) pyrimidine-5-carbonitrile]",inhibition at 10 µM,SK-MEL-2,15.1%
same,inhibition at 10 µM,UACC-257,14.1%
same,inhibition at 10 µM,HOP-62,< 10%
same,inhibition at 10 µM,UO-31,< 10%
same,inhibition at 10 µM,SNB-75,14.8%
same,inhibition at 10 µM,ACHN,< 10%
same,inhibition at 10 µM,OVCAR-4,10.6%
same,inhibition at 10 µM,PC-3,25.1%
same,inhibition at 10 µM,DU-145,< 10%
same,inhibition at 10 µM,NCI-H23,< 10%
same,inhibition at 10 µM,SK-MEL-28,< 10%
same,inhibition at 10 µM,K-562,18%
same,inhibition at 10 µM,CCRF-CEM,< 10%
same,inhibition at 10 µM,NCI-H322M,< 10%
same,inhibition at 10 µM,MOLT-4,< 10%
same,inhibition at 10 µM,NCI-H460,< 10%
same,inhibition at 10 µM,RPMI-8226,18.4%
same,inhibition at 10 µM,OVCAR-8,< 10%
same,inhibition at 10 µM,MCF7,21.3%
same,inhibition at 10 µM,HS 578T,< 10%
same,inhibition at 10 µM,MALME-3M,< 10%
same,inhibition at 10 µM,COLO 205,12.2%
same,inhibition at 10 µM,SNB-19,< 10%
same,inhibition at 10 µM,SK-MEL-5,13.7%
same,inhibition at 10 µM,HOP-92,< 10%
same,inhibition at 10 µM,NCI/ADR-RES,< 10%
same,inhibition at 10 µM,SF-268,15.3%
same,inhibition at 10 µM,786–0,< 10%
same,inhibition at 10 µM,HCC-2998,< 10%
same,inhibition at 10 µM,SK-OV-3,< 10%
same,inhibition at 10 µM,SF-539,< 10%
same,inhibition at 10 µM,MDA-MB-468,13.6%
same,inhibition at 10 µM,NCI-H522,13.8%
same,inhibition at 10 µM,HCT-116,15.1%
same,inhibition at 10 µM,SN12C,< 10%
"CN1CCN(c2nc(SCc3ccc(F)cc3)nc(-c3ccc(F)cc3)c2C#N)CC1 [4j, 2-((4-Fluorobenzyl)thio)-4-(4-fluorophenyl)-6-(4-methylpiperazin-1-yl)pyrimidine-5-carbonitrile]",inhibition at 10 µM,SK-MEL-2,< 10%
same,inhibition at 10 µM,UACC-257,< 10%
same,GI%,"HOP-62; 10 μM one-dose, Table 1",— (GI value > 70%)
same,inhibition at 10 µM,HOP-62,64.4%
same,inhibition at 10 µM,UO-31,30.1%
same,GI%,"SNB-75; 10 μM one-dose, Table 1",74.91%
same,inhibition at 10 µM,SNB-75,74.9%
same,inhibition at 10 µM,ACHN,39.1%
same,GI%,"OVCAR-4; 10 μM one-dose, Table 1",— (GI value > 70%)
same,inhibition at 10 µM,OVCAR-4,24.1%
same,inhibition at 10 µM,PC-3,32.3%
same,inhibition at 10 µM,DU-145,< 10%
same,inhibition at 10 µM,NCI-H23,22.2%
same,inhibition at 10 µM,SK-MEL-28,16.2%
same,GI%,"K-562; 10 μM one-dose, Table 1",— (GI value > 70%)
same,inhibition at 10 µM,K-562,18.5%
same,inhibition at 10 µM,CCRF-CEM,< 10%
same,inhibition at 10 µM,NCI-H322M,24.6%
same,inhibition at 10 µM,MOLT-4,< 10%
same,inhibition at 10 µM,NCI-H460,< 10%
same,inhibition at 10 µM,RPMI-8226,15%
same,inhibition at 10 µM,OVCAR-8,32%
same,inhibition at 10 µM,MCF7,14.8%
same,GI%,"HS 578T; 10 μM one-dose, Table 1",— (GI value > 70%)
same,inhibition at 10 µM,HS 578T,60.4%
same,inhibition at 10 µM,MALME-3M,39.5%
same,inhibition at 10 µM,COLO 205,< 10%
same,inhibition at 10 µM,SNB-19,40.3%
same,inhibition at 10 µM,SK-MEL-5,< 10%
same,inhibition at 10 µM,HOP-92,66.2%
same,inhibition at 10 µM,NCI/ADR-RES,42.9%
same,inhibition at 10 µM,SF-268,15.8%
same,GI%,"786–0; 10 μM one-dose, Table 1",— (GI value > 70%)
same,inhibition at 10 µM,786–0,67.1%
same,inhibition at 10 µM,HCC-2998,< 10%
same,inhibition at 10 µM,SK-OV-3,55.5%
same,GI%,"SF-539; 10 μM one-dose, Table 1",— (GI value > 70%)
same,inhibition at 10 µM,SF-539,54.8%
same,inhibition at 10 µM,MDA-MB-468,23.6%
same,inhibition at 10 µM,NCI-H522,23.6%
same,inhibition at 10 µM,HCT-116,25.3%
same,inhibition at 10 µM,SN12C,20.5%
